Source: patent publication US20160115540A1, “PRODRUGS AND DRUGS” (Biogen MA Inc., priority 2013, published 2016)
Where a name gives a salt, the structure may show the parent alone.

System: kidney
Test: Transcriptional profiling on Affymetrix GeneChips, single dose, naïve mice: kidney
Type: in vivo, C57BL/6 mice
Details: 100MMF-vs-Veh
Description: Treated mice were sacrificed at 2, 7, or 12 hours. Tissues (liver, spleen, kidney, jejunum, cortex, hippocampus, striatum and whole blood) were collected and analyzed by transcriptional profiling on mouse Affymetrix GeneChips.
Tissues (liver, spleen, kidney, jejunum, cortex, hippocampus, striatum and whole blood) were collected and analyzed by transcriptional profiling on mouse Affymetrix GeneChips.
Animals were exposed to CO2 and whole blood collected via cardiac puncture. Two 100 μl aliquots of whole blood were collected in 1.5 mL microcentrifuge tubes and snap frozen in liquid nitrogen. Peripheral (liver, spleen, kidney and jejunum) and CNS brain (cerebellum, hippocampus, striatum and cortex) tissues were harvested and snap frozen in liquid nitrogen, with special care taken to collect tissues of similar size and from the same location. All samples were stored at −80° C. until RNA extraction was conducted.
For RNA preparation, frozen tissues were placed in 2 mL RNAse-free 96-well blocks with 1.5 mL QIAzol Lysis Reagent (QIAgen) and a 3.2 mm stainless steel bead (BioSpec Products, Bartlesville, Okla.). Tissues were disrupted for four cycles of 45 seconds in a Mini-Beadbeater (Biospec Products). RNA was extracted in chloroform and the aqueous phase was mixed with an equal volume of 70% ethanol. Extracted RNA was applied to RNeasy 96 plates and purified by the spin method according to the manufacturer's protocol (RNeasy 96 Universal Tissue Protocol, QIAgen, Hilden Germany).
Automated sample amplifications and biotin labelings were carried out using the NuGEN Ovation RNA Amplification system V2 (Cat #3100), Ovation WB reagent (Cat #1300) and Encore Biotin module (Cat #4200) (NuGEN Technologies, Inc, San Carlos, Calif.) according to manufacturer's recommendations using an Arrayplex automated liquid handler (Beckman Coulter, Indianapolis, Ind.). Two micrograms of biotin labeled sscDNA probe were hybridized to Affymetrix GeneChip Affymetrix HT_MG-430_PM plate arrays with modified conditions as described in Allaire et al. Washing and staining of the hybridized arrays were completed as described in the GeneChip Expression analysis technical manual for HT plate arrays using the Genechip® Array Station (Affymetrix, Santa Clara, Calif.) with modifications as described in Allaire et al. The processed GeneChip® plate arrays were scanned using GeneTitan scanner (Affymetrix, Santa Clara, Calif.).
Affymetrix scans were subject to quality control (QC) measures. These tests included a visual inspection of the distribution of raw signal intensities and an assessment of RNA degradation, relative log expression (RLE), and normalized unsealed standard error (NUSE). All sample scans that passed these QC metrics were included in the analysis.
All CEL files were subjected to GC-content-based Robust Multi-array Average (GCRMA) normalization (version 2.20.0) (Irizarry R A, et al. Nucleic Acids Res 2003; 31:e15; Li C, et al. Genome Biol 2001; 2:[…]0032). Expression levels were log (base 2) transformed.
All calculations and analyses were carried out using R (version 2.11.1) and Bioconductor computational tools (Gentleman R. Springer Science+Business Media 2005).

COC(=O)/C=C/C(=O)O [MMF, monomethyl fumarate]
FC Gsr (1421816_PM_at) (7 h): 1.83
FC Gsta3 (1423436_PM_at) (7 h): 1.99
FC Gsta3 (1423437_PM_at) (7 h): 2.95
FC Gsta4 1416368_PM_at (7 h): 1.85
FC Havcr1 1434716_PM_at (7 h): 3.22
FC Hfe 1450702_PM_at (7 h): 1.57
FC Hist1h2be 1440330_PM_at (7 h): 1.98
FC Hist2h3c1 1442051_PM_at (7 h): 1.65
FC Hmox1 1448239_PM_at (7 h): 7.48
FC Hsp90aa1 1426645_PM_at (7 h): 1.50
FC Ido2 1425778_PM_at (7 h): −1.52
FC Ikbkg 1421209_PM_s_at (7 h): 1.77
FC Ikbkg 1435646_PM_at (7 h): 1.80
FC Ikbkg 1454690_PM_at (7 h): 1.61
FC Il18 1417932_PM_at (7 h): −1.52
FC Kif20b 1439695_PM_a_at (7 h): −2.61
FC Lcp1 1415983_PM_at (7 h): 1.59
FC Lcp1 1448160_PM_at (7 h): 1.56
FC Lpar2 1442291_PM_at (7 h): 1.84
FC Lrp8 (1440882_PM_at) (7 h): 2.19
FC Mctp2 1457707_PM_at (7 h): 1.54
FC Mfsd2a 1428223_PM_at (7 h): −3.38
FC Mt1 1422557_PM_s_at (7 h): 1.89
FC Mt2 1428942_PM_at (7 h): 2.71
FC Mthfd2 1419253_PM_at (7 h): 1.89
FC Mthfd2 1419254_PM_at (7 h): 1.68
FC Napsa 1430744_PM_at (7 h): −1.79
FC Ndrg1 1423413_PM_at (7 h): 1.52
FC Ndrg1 1450977_PM_s_at (7 h): 1.54
FC Nmral1 1430530_PM_s_at (7 h): −1.52
FC Nqo1 (1423627_PM_at) (7 h): 1.96
FC Nrg1 1456524_PM_at (7 h): 1.81
FC Nudt11 1426887_PM_at (7 h): 1.62
FC Pank1 1457110_PM_at (7 h): −1.79
FC Pank2 1452733_PM_at (7 h): −1.94
FC Pard3 1434775_PM_at (7 h): 1.53
FC Pfkfb4 1456888_PM_at (7 h): 1.69
FC Pgd 1423706_PM_a_at (7 h): 2.21
FC Pgd 1438627_PM_x_at (7 h): 1.78
FC Pgd (1436771_PM_x_at) (7 h): 1.87
FC Pgd (1437380_PM_x_at) (7 h): 1.87
FC Pir (1429001_PM_at) (7 h): 2.63
FC Ppm1e 1434990_PM_at (7 h): −1.53
FC Rab38 1417700_PM_at (7 h): −1.57
FC Rassf6 1429262_PM_at (7 h): 1.65
FC Rdh10 1460632_PM_at (7 h): 1.68
FC Rhof 1455902_PM_x_at (7 h): 1.66
FC Rnf24 1436101_PM_at (7 h): −2.03
FC Rock2 1451041_PM_at (7 h): 1.60
FC Rundc3b 1434456_PM_at (7 h): 1.54
FC Sema3c 1420696_PM_at (7 h): 1.66
FC Slc7a1 1454992_PM_at (7 h): 1.62
FC Slc9a8 1454865_PM_at (7 h): −1.68
FC Slc16a6 1417884_PM_at (7 h): 1.55
FC Slc20a1 1448568_PM_a_at (7 h): 1.70
FC Slc40a1 1448566_PM_at (7 h): 1.51
FC Slc48a1 1450410_PM_a_at (7 h): 1.58
FC Smcp 1418358_PM_at (7 h): −1.96
FC Sphk2 1426230_PM_at (7 h): −1.54
FC Sqstm1 1450957_PM_a_at (7 h): 1.62
FC Srxn1 (1419942_PM_at) (7 h): 2.45
FC Srxn1 (1425351_PM_at) (7 h): 2.92
FC Srxn1 (1426875_PM_s_at) (7 h): 2.29
FC Srxn1 (1451680_PM_at) (7 h): 2.68
FC Syn3 1435311_PM_s_at (7 h): −1.68
FC Tardbp 1423723_PM_s_at (7 h): 1.62
FC Tcte2 1425009_PM_at (7 h): −1.61
FC Tiam2 1423186_PM_at (7 h): 2.27
FC Tmem86a 1428758_PM_at (7 h): −1.56
FC Tnfrsf12a 1418571_PM_at (7 h): 2.40
FC Tnfrsf12a 1418572_PM_x_at (7 h): 2.45
FC Trim7 1425743_PM_at (7 h): −1.59
FC Trim7 1439352_PM_at (7 h): −1.55
FC Tubb2a 1427347_PM_s_at (7 h): 1.52
FC Txnrd1 1421529_PM_a_at (7 h): 1.72
FC Txnrd1 (1424486_PM_a_at) (7 h): 3.08
FC Txnrd1 (1424487_PM_x_at) (7 h): 2.37
FC Upp2 1424969_PM_s_at (7 h): −3.63
FC Upp2 1451548_PM_at (7 h): −4.00
FC Uxs1 1426275_PM_a_at (7 h): 1.50
FC Vwa1 1426399_PM_at (7 h): −1.69
FC Wdr90 1426767_PM_at (7 h): −1.58
FC Wnt5a 1436791_PM_at (7 h): 1.69
FC Wnt5a 1448818_PM_at (7 h): 1.81
FC Acot1 /// Acot2 1422997_PM_s_at (12 h): 1.51
FC Aldh1a1 1416468_PM_at (12 h): 2.21
FC Aldh1a7 (1418601_PM_at) (12 h): 3.02
FC Aox1 (1419435_PM_at) (12 h): 2.23
FC Arg2 1418847_PM_at (12 h): 2.70
FC Atp11a 1421167_PM_at (12 h): −1.62
FC C1qtnf3 1422606_PM_at (12 h): −1.57
FC Cyp51 1422533_PM_at (12 h): −1.95
FC Cyp51 1422534_PM_at (12 h): −1.79
FC Egln3 1418649_PM_at (12 h): 1.71
FC G6pd2 /// G6pdx 1422327_PM_s_at (12 h): 1.91
FC Gbe1 1420654_PM_a_at (12 h): 1.51
FC Gdf15 1418949_PM_at (12 h): 2.01
FC Gm3776 /// Gsta1 /// Gsta2 1421041_PM_s_at (12 h): 1.68
FC Gpr19 1421756_PM_a_at (12 h): 1.50
FC Gsta2 (1421040_PM_a_at) (12 h): 1.61
FC Gsta3 (1423436_PM_at) (12 h): 1.95
FC Gsta3 (1423437_PM_at) (12 h): 2.85
FC Gsta4 1416368_PM_at (12 h): 1.95
